Entries after “also recorded” stand apart in the source; their conditions may differ. Where two headings read alike, the source gives them in different places.
Tests used:
[1] = tested on: PK1 neuroblastoma cells treated with TPrP; test: cells; format: cell-based; details: for EC50: Neuroblastoma cell
[2] = tested on: Primary mouse cortical neurons; format: cell-based
NAMPT = molecular target: T1, NAMPT (Homo sapiens, UniProt P43490); test: Colorimetric NAMPT activity assay (Abcam, ab221819); format: biochemical; details: tested at 5 μM or 20 μM
T1 construct: purchased Abcam ab221819
T1 sequence (P43490 whole entry): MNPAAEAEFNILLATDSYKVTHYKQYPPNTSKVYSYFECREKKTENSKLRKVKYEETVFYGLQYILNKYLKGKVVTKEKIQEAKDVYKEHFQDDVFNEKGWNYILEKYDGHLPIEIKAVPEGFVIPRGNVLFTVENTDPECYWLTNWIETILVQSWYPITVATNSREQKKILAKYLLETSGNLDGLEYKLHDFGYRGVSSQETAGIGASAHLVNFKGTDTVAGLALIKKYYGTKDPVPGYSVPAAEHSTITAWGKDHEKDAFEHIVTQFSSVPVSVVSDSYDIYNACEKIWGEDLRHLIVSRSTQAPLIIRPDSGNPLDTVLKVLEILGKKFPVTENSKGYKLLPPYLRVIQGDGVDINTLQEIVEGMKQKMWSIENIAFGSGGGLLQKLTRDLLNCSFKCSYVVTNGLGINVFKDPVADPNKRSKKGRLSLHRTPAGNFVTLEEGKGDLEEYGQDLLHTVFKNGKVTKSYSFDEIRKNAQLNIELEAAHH
Description: Compounds were tested in a colorimetric NAMPT activity assay (Abcam, ab221819). Each data point represents a duplicate sample. […] Compounds were tested at 5 μM (A) or 20 μM (B).

[3] = tested on: PK1 cells treated with TPrP; format: cell-based
[4] = tested on: PK1 neuroblastoma cells treated with TPrP; test: cells; format: cell-based; details: Neuroblastoma cell
GABAA R subtypes = details: relative to DMCM; cited from earlier work
Cells exposed to TPrP [5] = test: cells; details: read-out: Viability EC50
[6] = tested on: Human stem cell-derived neurons; test: Cellular PD model, α-synuclein PFFs-seeded human neurons; format: cell-based; details: 2 μM, PFFs 50 μg/ml, 17 days
Description: Human stem cell-derived neurons (30 days post-differentiation) were seeded with 50 μg/ml preformed α-synuclein fibrils (PFFs), treated with DMCM-10049 at 2 μM or vehicle, and fixed 17 days later for analysis. Control cells were not PFFs-seeded. A: Dendritic spines were labeled with the marker F-actin using Phalloidin-iFluor 488 (Abcam). B: pα-syn* (red, antibody GTX50222, GeneTex)+DAPI (blue) staining. Quantification was done using ImageJ (NIH), statistical analysis with one way ANOVA (Prism7). Mean values and SDs of 8 images (A) or 6 images (B) per each condition are shown. ****P<0.0001; ***P<0.001; ns=non significant.

PARP-1 = PARP-1 (Homo sapiens, UniProt P09874); test: PARP1 chemiluminescent assay kit (BPS Bioscience); format: biochemical; details: FIG. 15
Sequence of PARP-1 (P09874 whole entry): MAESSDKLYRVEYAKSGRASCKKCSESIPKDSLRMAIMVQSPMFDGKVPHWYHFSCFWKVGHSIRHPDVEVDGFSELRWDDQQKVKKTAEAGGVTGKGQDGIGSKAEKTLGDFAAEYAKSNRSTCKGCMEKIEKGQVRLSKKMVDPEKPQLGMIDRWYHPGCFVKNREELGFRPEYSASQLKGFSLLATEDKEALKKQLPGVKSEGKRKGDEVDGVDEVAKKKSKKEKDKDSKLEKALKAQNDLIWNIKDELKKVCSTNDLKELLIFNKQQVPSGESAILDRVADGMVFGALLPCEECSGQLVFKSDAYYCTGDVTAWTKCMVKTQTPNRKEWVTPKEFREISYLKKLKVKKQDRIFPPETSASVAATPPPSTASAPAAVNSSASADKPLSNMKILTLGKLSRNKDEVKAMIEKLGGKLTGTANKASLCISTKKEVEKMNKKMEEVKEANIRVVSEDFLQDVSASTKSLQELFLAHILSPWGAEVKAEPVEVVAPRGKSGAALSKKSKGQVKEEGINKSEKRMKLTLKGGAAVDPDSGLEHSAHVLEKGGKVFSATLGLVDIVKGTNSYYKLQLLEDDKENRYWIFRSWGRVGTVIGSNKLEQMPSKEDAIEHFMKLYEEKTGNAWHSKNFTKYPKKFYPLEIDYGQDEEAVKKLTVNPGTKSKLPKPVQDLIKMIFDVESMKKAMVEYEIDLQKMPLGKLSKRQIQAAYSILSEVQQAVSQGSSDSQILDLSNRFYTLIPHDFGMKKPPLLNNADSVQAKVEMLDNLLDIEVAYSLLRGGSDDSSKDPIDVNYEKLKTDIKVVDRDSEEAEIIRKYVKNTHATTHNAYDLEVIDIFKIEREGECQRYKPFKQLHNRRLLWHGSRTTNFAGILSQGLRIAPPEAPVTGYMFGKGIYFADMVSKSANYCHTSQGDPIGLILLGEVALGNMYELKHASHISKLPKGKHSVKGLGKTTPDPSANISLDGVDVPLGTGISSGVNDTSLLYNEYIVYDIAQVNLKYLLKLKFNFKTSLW
Description: ABT-888 is a known PARP1 inhibitor serving as pharmacological control for the assay. […] The assay was performed using the BPS Bioscience PARP1 chemiluminescent assay kit according to the manufacturer's instructions.

[7] = tested on: PK1 cells exposed to TPrP; format: cell-based
VEGFR-1 [8] = molecular target: T2, VEGFR-1 (Homo sapiens, UniProt P17948); test: VEGFR inhibition of vatalanib analogs; format: biochemical; details: relative to vatalanib
T2 sequence (P17948 27-1338, species assumed): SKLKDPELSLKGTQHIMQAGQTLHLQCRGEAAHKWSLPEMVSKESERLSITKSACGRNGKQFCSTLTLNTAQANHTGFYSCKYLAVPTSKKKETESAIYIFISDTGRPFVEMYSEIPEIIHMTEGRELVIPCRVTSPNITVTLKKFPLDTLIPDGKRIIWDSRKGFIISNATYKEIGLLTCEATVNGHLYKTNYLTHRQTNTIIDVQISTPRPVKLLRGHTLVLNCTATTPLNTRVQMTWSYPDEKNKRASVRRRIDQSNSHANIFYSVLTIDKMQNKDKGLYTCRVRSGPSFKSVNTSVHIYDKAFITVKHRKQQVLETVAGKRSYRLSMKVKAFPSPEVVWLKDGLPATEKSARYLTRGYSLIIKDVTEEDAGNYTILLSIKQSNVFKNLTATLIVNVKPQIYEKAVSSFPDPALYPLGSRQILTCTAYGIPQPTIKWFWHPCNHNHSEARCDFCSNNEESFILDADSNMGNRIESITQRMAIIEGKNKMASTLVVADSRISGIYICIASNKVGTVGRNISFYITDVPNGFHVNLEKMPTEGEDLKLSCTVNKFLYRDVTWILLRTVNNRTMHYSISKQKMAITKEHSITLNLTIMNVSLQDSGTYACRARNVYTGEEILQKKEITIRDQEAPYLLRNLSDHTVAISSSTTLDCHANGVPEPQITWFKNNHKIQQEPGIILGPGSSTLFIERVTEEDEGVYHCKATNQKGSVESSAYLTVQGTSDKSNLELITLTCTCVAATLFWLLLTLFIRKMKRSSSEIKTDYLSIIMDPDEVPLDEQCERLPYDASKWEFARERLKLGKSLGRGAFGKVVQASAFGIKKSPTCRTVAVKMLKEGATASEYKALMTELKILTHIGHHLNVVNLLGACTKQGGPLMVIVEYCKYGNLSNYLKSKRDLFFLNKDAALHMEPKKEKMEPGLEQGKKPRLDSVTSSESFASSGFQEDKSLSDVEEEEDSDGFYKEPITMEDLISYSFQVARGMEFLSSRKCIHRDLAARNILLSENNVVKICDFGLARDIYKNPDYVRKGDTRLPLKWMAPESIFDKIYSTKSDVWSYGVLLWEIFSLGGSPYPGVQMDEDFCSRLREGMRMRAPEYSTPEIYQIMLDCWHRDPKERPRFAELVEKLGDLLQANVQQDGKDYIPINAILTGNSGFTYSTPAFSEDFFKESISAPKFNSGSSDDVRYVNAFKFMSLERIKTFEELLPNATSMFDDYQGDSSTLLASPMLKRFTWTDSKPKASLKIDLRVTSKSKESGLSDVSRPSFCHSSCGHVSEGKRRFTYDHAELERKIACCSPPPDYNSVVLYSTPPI

[9] = in vivo; cited from earlier work
[10] = tested on: Murine stem-cell derived neurons; test: Cellular PD/synucleinopathy model, PFFs-seeded murine neurons, neurite length; format: cell-based; details: FIG. 14
Description: Murine stem-cell derived neurons (8 days post-differentiation) were seeded with PFFs (A, B: 4 μg/ml; C, D: 3 μg/ml) and treated with the test compounds at the dose indicated, or with the vehicle DMSO, during the last 2 days of differentiation. Control cells were not PFFs-seeded. Cells were photographed by phase contrast microscopy. Neurite length was quantified using the NeuronJ plugin of ImageJ (NIH), statistical analysis was done in pairs by comparing compound-treated cells with the DMSO control (student's t-test, Prism8). Mean values and SEMs of 4 fields per each condition are shown. Each field contained approximately 50 to 100 neurons. Images shown correspond to a representative area of one field. ****P<0.0001; ***P<0.001; **P<0.01; *P<0.05; ns=not significant.

VEGFR-1 [11] = molecular target: T2, VEGFR-1; details: subtype not given; cited from earlier work
Cells exposed to TPrP [12] = details: read-out: Viability EC50
[13] = read-out: EC50 (TPrP toxicity rescue / neuroprotection)

With `CCc1c(C(=O)OC)ncc2[nH]c3cc(OC)c(OC)cc3c12` [SR1-75869, DMCM, reference compound] the EC50 ([1]; read-out: Viability EC50) was 120 nM, the “neuritic breakdown and neuronal vacuolation induced by TPrP” value [2] was “suppressed” and the “rescue of TPrP-induced toxicity (cell viability)” value [2] was “rescues TPrP-induced toxicity”. For the same compound, the “Activation of NAMPT” value (NAMPT) was “not”, the “excessive protein ADP ribosylation induced by TPrP” value [3] was “mitigates excessive protein ADP ribosylation” and the EC50 ([4]; read-out: NAD EC50) was 749 nM.
In the case of NAD, the “neuritic breakdown and neuronal vacuolation induced by TPrP” value [2] is reported as “suppressed”.
In the case of `CCc1c(C(=O)NN)ncc2[nH]c3cc(OC)c(OC)cc3c12` [DMCM-10049], the “reduced potency for most GABAA R subtypes” value (GABAA R subtypes) is given as “over 100 ×”, the EC50 (Cells exposed to TPrP [5]) is given as ~500 nM and the “dendritic spines (F-actin)” value [6] is given as “preserves dendritic spines”. For the same compound, the “pα-syn* levels” value [6] was “reduces pα-syn* levels” and the PARP-1 inhibition (PARP-1) was “absence of PARP-1 inhibition”.
In the case of `CCOC(=O)c1ncn2c1CN(C)C(=O)c1cc(F)ccc1-2` [flumazenil], the “protection against TPrP toxicity” value [7] is reported as “neither rescued TPrP-induced toxicity; also recorded: absence of protection”.
In the case of `CC(=O)c1cccc(Nc2nnc(Cc3ccncc3)c3ccccc23)c1` [SR1-134005], the “fold more potent than vatalanib as a neuroprotective agent” value [1] is reported as “more than 6 fold”, the EC50 [1, 13] is reported as 6.3 nM and the EC50 ([1]; read-out: Viability EC50) is reported as 6.3 nM. The “Activation of NAMPT” value (NAMPT) was “Activation of NAMPT”, the “fold less potent than vatalanib at VEGFR-1” value (VEGFR-1 [8]) was 13 fold and the EC50 (Cells exposed to TPrP [5]) was 20 nM. The PARP-1 inhibition (PARP-1) was “absence of PARP-1 inhibition” and the EC50 ([4]; read-out: NAD EC50) was 105 nM.
In the case of `Cc1ccc(-c2nnc3c4ccccc4c(C)nn23)cc1S(=O)(=O)N1CCOCC1` [SR5-22843], the EC50 ([1]; read-out: Viability EC50) is reported as 30 nM, the PARP-1 inhibition (PARP-1) is reported as “absence of PARP-1 inhibition” and the EC50 ([4]; read-out: NAD EC50) is reported as 219 nM.
For `Clc1ccc(Nc2nnc(Cc3ccncc3)c3ccccc23)cc1` [Vatalanib, reference compound], the EC50 [1, 13] is listed as 39.9 nM, the EC50 ([1]; read-out: Viability EC50) is listed as 40 nM and the oral bioavailability [9] is listed as “high”. The “loss of neurites induced by PFFs exposure” value (“loss of neurites induced” for short) [10] was “prevent loss of neurites”, the EC50 (Cells exposed to TPrP [5]) was 45 nM and the EC50 ([4]; read-out: EC50 (NAD assay)) was 195 nM. It also gave an EC50 ([4]; read-out: NAD EC50) of 195 nM.
In the case of `COc1cc(Nc2nnc(Cc3ccncc3)c3ccccc23)cc(OC)c1` [SR1-151915], the EC50 [1, 13] is given as 71.4 nM, the EC50 ([1]; read-out: Viability EC50) is given as 71.4 nM and the IC50 (VEGFR-1 [11]) is given as > 1000 nM. It also gave an EC50 ([4]; read-out: NAD EC50) of 280 nM.
For `O=C(NCCCn1ccnc1)c1cnn2c(C(F)(F)F)cc(-c3ccccc3)nc12` [SR1-293229], the EC50 ([1]; read-out: Viability EC50) was 1.9 nM, the EC50 (Cells exposed to TPrP [12]) was 2 nM and the “Activation of NAMPT” value (NAMPT) was “not”. The “loss of neurites induced” value [10] was “prevent loss of neurites”, the EC50 (Cells exposed to TPrP [5]) was 1.5 nM and the PARP-1 inhibition (PARP-1) was “absence of PARP-1 inhibition”. For the same compound, the EC50 ([4]; read-out: NAD EC50) was 6.8 nM.
With `COc1ccc(-c2cc(=O)c3c(OC)c(OC)c(OC)c(OC)c3o2)cc1OC` [SR-01000712262, 2-(3,4-dimethoxyphenyl)-5,6,7,8-tetramethoxy-4H-chromen-4-one] the EC50 ([1]; read-out: Viability EC50) was 580 nM, the “Activation of NAMPT” value (NAMPT) was “not” and the “loss of neurites induced” value [10] was “prevent loss of neurites”. For the same compound, the PARP-1 inhibition (PARP-1) was “absence of PARP-1 inhibition” and the EC50 ([4]; read-out: NAD EC50) was 664 nM.

From US12590094B2, “Compounds for the treatment of neurodegenerative and metabolic disorders” (UNIVERSITY OF FLORIDA RESEARCH FOUNDATION, INCORPORATED, priority 2019, dated 2026)
